Results: patent US20260092085A1, “SYNTHETIC TRIPLEX PEPTIDE NUCLEIC ACID-BASED INHIBITORS FOR CANCER THERAPY” (University of Connecticut, priority 2022, published 2026)

Test system: Mcl-1 and Caspase-3
Test: Western blot of Mcl-1 and Caspase-3 in U2932 cells
Format: cell-based, human
Conditions: U2932, 500 nM
Description: FIGS. 3A-F show cell culture-based functional assay in U2932 lymphoma cells. (3A) γtcPNA-155-TAMRA uptake in the U2932 lymphoma cell line: Representative flow cytometry traces of TAMRA fluorescence in U2932 cells after treatment with 500 nM dose of γtcPNA-155-TAMRA for 48 hours. The data was analyzed by FlowJo software. (3B) Normalized miR-155 gene expression levels in U2932 after treatment with phosphate buffer saline (PBS) as a control and with 500 nM dose of Scr-γtcPNA-155, PNA-155, γPNA-155 and γtcPNA-155 for 48 hours compared to average control U6 (n=3), data represented as mean±standard error mean (SEM), Statistical analysis was performed using Unpaired two-tailed t-test. […] (3E) Representative western blot of Mcl-1 and its quantification (n=3 technical replicate) and (3F) Caspase-3 protein and its quantification (n=3 technical replicate) in U2932 cell line after treatment with 500 nM of Scr-γtcPNA-155, PNA-155 and γtcPNA-155 for 48 hours. […] Numbers above western blot panels represent relative quantification of the respective bands using ImageJ software and normalized relative to loading control and treatment control.
FIGS. 5A-B show representative western blot of Mcl-1 (5A) and Caspase-3 (5B) and its quantification (n=3) obtained from U2932 cell line after treatment with 500 nM of Scr-γtcPNA-155, γPNA-155 and γtcPNA-155 for 48 hours. […]

γtcPNA-155: serine gamma tail-clamp anti-miR-155 PNA, RR-TJJJJ-OOO-ACCCCTATCACGATTAGCATTAA-RR, SEQ ID NO: 3 (all peptide nucleic acid (PNA); serine gamma PNA, tail-clamp TJJJJ via linkers, Arg-Arg at both ends)
downregulation of Mcl-1 protein (western blot): 50% | upregulation of Caspase-3 protein (western blot): 80%
